Measured values reported in patent US9023789B2, “Amylin analogs and pharmaceutical compositions thereof” (Novo Nordisk A/S, priority 2012, dated 2015).
Numbered stars: 1 amine (or outer) side, 2 acyl side, 3 side chain; on linkers, the order of the positions; unused ones are H or OH. Bridge positions count the residues as written; N and C are the ends. Peptide text beside a SMILES is read from it. * marks the point of attachment. C20 diacid = O=C(O)CCCCCCCCCCCCCCCCCCC(=O)*; γGlu = O=C(O)[C@H](CCC(=O)[*:2])N[*:1]

Legend:
[1] = ASSAY (III) ThT fibrillation assay for physical stability; format: physicochemical
In short: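 Formulations with 1 μM ThT, pH adjusted as required, incubated at 37 °C with 960 rpm orbital shaking; fluorescence (ex 444/em 485 nm) read every 20 min. Fibrillation reported as mean ThT fluorescence ± SD of 4–8 replicates at time points; polypeptide concentration measured by reverse-phase HPLC before and after, post-centrifugation.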

[2] = biological target: T1, human amylin receptor (membranes from Amylin 3(a)/CRE-luc cells) (Homo sapiens, UniProt O60896+P30988); assay: ASSAY (V) binding to the human amylin receptor (SPA, 125I-rat amylin);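 further: competition binding of cell membranes (35 ng/µL) mixed with SPA beads in 384-well plates at 40 µL total volume, read by scintillation counting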
T1 construct: expressed in transfected cells
T1 sequence (P30988 25-474): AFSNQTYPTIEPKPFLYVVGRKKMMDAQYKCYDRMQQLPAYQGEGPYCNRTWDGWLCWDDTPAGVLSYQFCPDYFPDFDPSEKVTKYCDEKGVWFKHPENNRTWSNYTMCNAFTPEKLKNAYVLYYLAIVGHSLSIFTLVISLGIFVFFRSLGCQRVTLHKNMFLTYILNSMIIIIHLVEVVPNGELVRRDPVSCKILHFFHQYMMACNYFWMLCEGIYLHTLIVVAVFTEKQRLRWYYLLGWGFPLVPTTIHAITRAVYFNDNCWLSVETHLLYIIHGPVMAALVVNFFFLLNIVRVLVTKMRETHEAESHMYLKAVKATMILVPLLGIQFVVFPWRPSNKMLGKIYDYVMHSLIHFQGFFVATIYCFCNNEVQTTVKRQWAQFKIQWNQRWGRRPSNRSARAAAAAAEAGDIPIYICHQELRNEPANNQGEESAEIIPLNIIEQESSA
T1 sequence (O60896 24-148 partner): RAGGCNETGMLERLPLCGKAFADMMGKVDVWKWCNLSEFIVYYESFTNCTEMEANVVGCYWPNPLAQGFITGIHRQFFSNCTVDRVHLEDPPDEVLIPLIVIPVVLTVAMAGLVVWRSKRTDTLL

[3] = Table 5, selectivity, hCTR bind IC50 / hAmylin-R bind IC50
[4] = Table 5a, selectivity, hCTR bind IC50 / hAmylin-R bind IC50
[5] = Table 5b, selectivity, hCTR bind IC50 / hAmylin-R bind IC50
[6] = Table 5c, selectivity, hCTR bind IC50 / hAmylin-R bind IC50
[7] = Table 7, human binding selectivity, included for comparison
[8] = Table 7a (preferred compounds), human binding selectivity, included for comparison
[9] = ratio of human calcitonin receptor binding IC50 to human amylin receptor binding IC50

| ThT pH 4.0 lag time (h) [1] [h] | Ratio hCT/hAmylin binding [2, 3] | Ratio hCT/hAmylin binding [2, 4] | Ratio hCT/hAmylin binding [2, 5] | Ratio hCT/hAmylin binding [2, 6] | Ratio hCT/hAmylin binding [2, 7] | Ratio hCT/hAmylin binding [2, 8] | Ratio hCT/hAmylin binding [2, 9] | SMILES |
| --- | --- | --- | --- | --- | --- | --- | --- | --- |
| 33 | 65.3 | 65.3 | 65.3 | 65.3 | 65.3 | 65.3 | 65.3 | CC[C@H](C)[C@H](NC(=O)[C@H](C)NC(=O)CNC(=O)[C@H](Cc1ccccc1)NC(=O)[C@H](CC(N)=O)NC(=O)[C@@H]1CCCN1C(=O)[C@H](CO)NC(=O)[C@H](CO)NC(=O)[C@H](Cc1c[nH]cn1)NC(=O)[C@H](CCCNC(=N)N)NC(=O)[C@H](CC(C)C)NC(=O)[C@H](Cc1ccccc1)NC(=O)[C@H](Cc1c[nH]cn1)NC(=O)[C@H](C)NC(=O)[C@H](CC(C)C)NC(=O)[C@H](CCCNC(=N)N)NC(=O)[C@H](CCC(N)=O)NC(=O)[C@@H](NC(=O)[C@H](C)NC(=O)[C@@H]1CSSC[C@H](NC(=O)[C@H](CCCNC(=N)N)NC(=O)CNC(=O)CC[C@H](NC(=O)CCCCCCCCCCCCCCCCCCC(=O)O)C(=O)O)C(=O)N[C@@H](CC(N)=O)C(=O)N[C@@H]([C@@H](C)O)C(=O)N[C@@H](C)C(=O)N[C@@H]([C@@H](C)O)C(=O)N1)[C@@H](C)O)C(=O)N1CCC[C@H]1C(=O)N[C@@H](CO)C(=O)N[C@@H](CO)C(=O)N[C@H](C(=O)N[C@@H](CC(N)=O)C(=O)N[C@H](C(=O)NCC(=O)N[C@@H](Cc1c[nH]cn1)C(=O)N[C@@H](CC(N)=O)C(=O)N[C@H](C(=O)N[C@@H](Cc1ccc(O)cc1)C(N)=O)[C@@H](C)O)C(C)C)[C@@H](C)O [Example 100] ({C20 diacid-γGlu}-GRCNTATCATQRLAHFLRHSSPNFGAIPSSTNVGHNTY-NH2; disulfide 3-8 (inferred)) |
| 4 | 100.8 | 100.8 | 100.8 | 100.8 | 100.8 | 100.8 | 100.8 | CC[C@H](C)[C@H](NC(=O)[C@H](C)NC(=O)CNC(=O)[C@H](Cc1ccccc1)NC(=O)[C@H](CC(N)=O)NC(=O)[C@@H]1CCCN1C(=O)[C@H](CO)NC(=O)[C@H](CO)NC(=O)[C@H](Cc1c[nH]cn1)NC(=O)[C@H](CCCNC(=N)N)NC(=O)[C@H](CC(C)C)NC(=O)[C@H](Cc1ccccc1)NC(=O)[C@H](CC(N)=O)NC(=O)[C@H](C)NC(=O)[C@H](CC(C)C)NC(=O)[C@H](CCCNC(=N)N)NC(=O)[C@H](CCC(N)=O)NC(=O)[C@@H](NC(=O)[C@H](C)NC(=O)[C@@H]1CSSC[C@H](NC(=O)[C@@H](N)CCCCNC(=O)COCCOCCNC(=O)CCCCCCCCCCCCCCCCCCC(=O)O)C(=O)N[C@@H](CC(N)=O)C(=O)N[C@@H]([C@@H](C)O)C(=O)N[C@@H](C)C(=O)N[C@@H]([C@@H](C)O)C(=O)N1)[C@@H](C)O)C(=O)N1CCC[C@H]1C(=O)N[C@@H](CO)C(=O)N[C@@H](CO)C(=O)N[C@H](C(=O)N[C@@H](CC(N)=O)C(=O)N[C@H](C(=O)NCC(=O)N[C@@H](Cc1c[nH]cn1)C(=O)N[C@@H](CC(N)=O)C(=O)N[C@H](C(=O)N[C@@H](Cc1ccc(O)cc1)C(N)=O)[C@@H](C)O)C(C)C)[C@@H](C)O [Example 91] |
| 8 | 145.0 | 145.0 | 145.0 | 145.0 | 145.0 | 145.0 | 145.0 | CC[C@H](C)[C@H](NC(=O)[C@H](C)NC(=O)CNC(=O)[C@H](Cc1ccccc1)NC(=O)[C@H](CC(N)=O)NC(=O)[C@@H]1CCCN1C(=O)[C@H](CO)NC(=O)[C@H](CO)NC(=O)[C@H](Cc1c[nH]cn1)NC(=O)[C@H](CCCNC(=N)N)NC(=O)[C@H](CC(C)C)NC(=O)[C@H](Cc1ccccc1)NC(=O)[C@H](Cc1c[nH]cn1)NC(=O)[C@H](C)NC(=O)[C@H](CC(C)C)NC(=O)[C@H](CCCNC(=N)N)NC(=O)[C@H](CCC(N)=O)NC(=O)[C@@H](NC(=O)[C@H](C)NC(=O)[C@@H]1CSSC[C@H](NC(=O)[C@@H](N)CCCCNC(=O)CC[C@H](NC(=O)CC[C@H](NC(=O)CCCCCCCCCCCCCCCCCCC(=O)O)C(=O)O)C(=O)O)C(=O)N[C@@H](CC(N)=O)C(=O)N[C@@H]([C@@H](C)O)C(=O)N[C@@H](C)C(=O)N[C@@H]([C@@H](C)O)C(=O)N1)[C@@H](C)O)C(=O)N1CCC[C@H]1C(=O)N[C@@H](CO)C(=O)N[C@@H](CO)C(=O)N[C@H](C(=O)N[C@@H](CC(N)=O)C(=O)N[C@H](C(=O)NCC(=O)N[C@@H](CO)C(=O)N[C@@H](CC(N)=O)C(=O)N[C@H](C(=O)N[C@@H](Cc1ccc(O)cc1)C(N)=O)[C@@H](C)O)C(C)C)[C@@H](C)O [Example 92] |
| 45 | 16.0 | 16.0 | 16.0 | – | 16.0 | 16.0 | 16.0 | CC[C@H](C)[C@H](NC(=O)[C@H](C)NC(=O)CNC(=O)[C@H](Cc1ccccc1)NC(=O)[C@H](CC(N)=O)NC(=O)[C@@H]1CCCN1C(=O)[C@H](CO)NC(=O)[C@H](CO)NC(=O)[C@H](Cc1c[nH]cn1)NC(=O)[C@H](CCCNC(=N)N)NC(=O)[C@H](CC(C)C)NC(=O)[C@H](Cc1ccccc1)NC(=O)[C@H](CCC(=O)O)NC(=O)[C@H](C)NC(=O)[C@H](CC(C)C)NC(=O)[C@H](CCCNC(=N)N)NC(=O)[C@H](CCC(N)=O)NC(=O)[C@@H](NC(=O)[C@H](C)NC(=O)[C@@H]1CSSC[C@H](NC(=O)[C@H](CCCCN)NC(=O)CC[C@H](NC(=O)CCCCCCCCCCCCCCCCCCC(=O)O)C(=O)O)C(=O)N[C@@H](CC(N)=O)C(=O)N[C@@H]([C@@H](C)O)C(=O)N[C@@H](C)C(=O)N[C@@H]([C@@H](C)O)C(=O)N1)[C@@H](C)O)C(=O)N1CCC[C@H]1C(=O)N[C@@H](CO)C(=O)N[C@@H](CO)C(=O)N[C@H](C(=O)N1CCC[C@H]1C(=O)N[C@H](C(=O)NCC(=O)N[C@@H](CO)C(=O)N[C@@H](CC(N)=O)C(=O)N[C@H](C(=O)N[C@@H](Cc1ccc(O)cc1)C(N)=O)[C@@H](C)O)C(C)C)[C@@H](C)O [Example 31] ({C20 diacid-γGlu}-KCNTATCATQRLAEFLRHSSPNFGAIPSSTPVGSNTY-NH2; disulfide 2-7 (inferred)) |
| 30 | 103.7 | 103.7 | 103.7 | 103.7 | 103.7 | 103.7 | 103.7 | CC[C@H](C)[C@H](NC(=O)[C@H](C)NC(=O)CNC(=O)[C@H](Cc1ccccc1)NC(=O)[C@H](CC(N)=O)NC(=O)[C@@H]1CCCN1C(=O)[C@H](CO)NC(=O)[C@H](CO)NC(=O)[C@H](Cc1c[nH]cn1)NC(=O)[C@H](CCCNC(=N)N)NC(=O)[C@H](CC(C)C)NC(=O)[C@H](Cc1ccccc1)NC(=O)[C@H](CC(N)=O)NC(=O)[C@H](C)NC(=O)[C@H](CC(C)C)NC(=O)[C@H](CCCNC(=N)N)NC(=O)[C@H](CCC(N)=O)NC(=O)[C@@H](NC(=O)[C@H](C)NC(=O)[C@@H]1CSSC[C@H](NC(=O)[C@@H](N)CCCCNC(=O)COCCOCCNC(=O)COCCOCCNC(=O)CC[C@H](NC(=O)CCCCCCCCCCCCCCCCCCC(=O)O)C(=O)O)C(=O)N[C@@H](CC(N)=O)C(=O)N[C@@H]([C@@H](C)O)C(=O)N[C@@H](C)C(=O)N[C@@H]([C@@H](C)O)C(=O)N1)[C@@H](C)O)C(=O)N1CCC[C@H]1C(=O)N[C@@H](CO)C(=O)N[C@@H](CO)C(=O)N[C@H](C(=O)N[C@@H](CC(N)=O)C(=O)N[C@H](C(=O)NCC(=O)N[C@@H](Cc1c[nH]cn1)C(=O)N[C@@H](CC(N)=O)C(=O)N[C@H](C(=O)N[C@@H](Cc1ccc(O)cc1)C(N)=O)[C@@H](C)O)C(C)C)[C@@H](C)O [Example 97] |
